Data on twelve molecules can be found in article PMC11855866 (International Journal of Molecular Sciences, 2025).

Converted amounts (≈) assume the structure as drawn. Where two headings read alike, the source gives them in different places.

Data set [1] relates to HepG2 cells. The data set can be described thus: MTT cytotoxicity / synergy assay, 72 h, HepG2.
Experimental: (§1) The synergistic effects of drug combinations were studied in various cancer cell lines, including MCF-7 (human breast cancer), A549 (human lung cancer), U-87 MG (human malignant glioma), HepG2 (human liver cancer), and HUH7 (human liver cancer). HMEC-1, an immortalized human microvascular endothelial cell line, was used as a model for normal cells. All cell lines were purchased from ATCC (Rockville, MD, USA).
(§2) The cancer cell lines were cultured in Dulbecco’s Modified Eagle’s Medium (DMEM; Sigma-Aldrich) supplemented with 10% FBS and 1% penicillin/streptomycin mixture (10,000 U/mL penicillin and 10 mg/mL streptomycin; Sigma-Aldrich) at 37 °C in a humidified atmosphere with 5% CO2.
(§3) For the MTT assay, exponentially growing cells were seeded into 96-well plates at a density of 5 × 10³ cells per well. After 24 h of incubation, the medium was replaced with 100 µL of fresh medium containing the tested compounds. After 72 h of treatment, cell viability was assessed using the MTT assay as described earlier. […] IC50 values were calculated using GraphPad Prism 9 software (GraphPad Software).
Data set [2] concerns MCF-7 cells. Put plainly: MTT cytotoxicity / synergy assay, 72 h, MCF-7. It counts as cell-based, human. The following applies: 72 h; for decrease in cell viability caused by 0.05% Tween-80: with vs. without 0.05% Tween-80; for IC50: MTT, n.d. = IC50 not achieved within concentrations tested, read-out: IC50 Value in Specific Cell Line, MCF-7. As for the experimental part: Stock solutions of the tested compounds were first prepared in DMSO at 200-fold the intended final concentration. […] The cells were treated for 72 h under the same conditions.
Following treatment, 25 μL of MTT solution was added to each well, and the plates were incubated for 2 h at 37 °C. […] IC₅₀ values, indicating the concentration required to reduce cell viability by 50% compared to untreated controls (set as 100% viability), were calculated using GraphPad Prism 9 software (GraphPad Software, San Diego, CA, USA). All data from this preliminary cytotoxic assay were analyzed by ANOVA followed by Tukey’s post hoc test for multiple comparisons, with significance set at p < 0.05. A similar statistical approach was used for the rest of the experimental work presented in this study.

Data set [3] relates to A549, HepG2, MCF-7, and U-87MG. The data set can be described thus: Doxorubicin accumulation assay, sensitive cell lines. It counts as cell-based, human. As for the experimental part:
Cells were seeded at a density of 2 × 10^4 cells per well in black 96-well plates as described in Section 3.6.

Data set [4] is described as follows: Hemolysis (Drabkin's method). It counts as cell-based. Conditions: human, washed erythrocyte (RBC) suspension, 40% hematocrit, pH 7.4, single drug, RT, dark, CTRL− 11.6%. The protocol:
Blood samples were collected from healthy human volunteers into Vacutainer tubes containing 3% sodium citrate (BD Biosciences, Warsaw, Poland). Whole blood was centrifuged at 1500 rpm (RCF = 214 g) for 10 min in a CompactStar CS4 centrifuge (VWR) at RT to separate erythrocytes, which were washed twice with PBS (pH 7.4) and centrifuged at 1500 rpm for 5 min at RT after each wash. Hematocrit was measured to adjust the final RBC concentration in PBS (pH 7.4) to 40%. The drugs were then dissolved in the RBC suspension at the final concentrations outlined in Figure 8. RBCs incubated in dH2O were used as a positive control (100% hemolysis), while RBCs in PBS were used as the negative control. A blank sample of PBS without RBCs or drugs provided a baseline for absorbance measurements. Experimental samples, along with positive, negative, and vehicle (0.5% DMSO) controls, were incubated for 4 h at RT in the dark. After incubation, the samples were centrifuged at 1500 rpm for 5 min at RT, and the supernatant was collected to measure hemoglobin release using Drabkin’s method. Absorbance was measured at 540 nm with a Jenway 6305 UV/Vis spectrophotometer (Bibby Scientific, Staffordshire, UK). This study was conducted in triplicate. The percentage of hemolysis was calculated by comparing the absorbance at 540 nm (OD540) of the test sample with that of the positive control using the following formula:(2) % Hemolysis=OD540Test−OD540(Blank)/OD540Total Lysis−OD540(Blank)×100%

Data set [5] can be described thus: DLS particle size measurements. Conditions: 100–500 µM CHLO, […] BSA, 0.05% Tween-80. It counts as physicochemical. The protocol:
Dynamic light scattering (DLS) measurements were performed using a Zetasizer Nano ZS instrument (Malvern Instruments, Malvern, UK). Samples of 2 mL were placed in disposable PMMA cuvettes (cat. #634-0677; VWR, Gdańsk, Poland) and measured at 37 °C. To ensure accuracy, each sample was measured at least three times. The data were processed using DTS v6.2 software (Malvern Instruments).

A further data set relates to HSA. Further details: method as in Figure S2 [39–71]. The following applies: ref Figure S2 [39–71]; cited from earlier work.
On the set-up of data set [6]: method as in Figure S2 [39–71]. Conditions: ref Figure S2 [39–71]; cited from earlier work.
The subject of a further data set is HMEC-1 cells. Put plainly: MTT cytotoxicity / synergy assay, 72 h, HMEC-1. Conditions: read-out: IC50 Value in Specific Cell Line, HMEC-1; for CC50: Homo sapiens, HMEC-1, 72 h.
A further data set has as its system U-87MG cells. Put plainly: MTT cytotoxicity / synergy assay, 72 h, U-87MG. It counts as cell-based. Conditions: Homo sapiens, n.d. = IC50 not achieved within concentrations tested, read-out: IC50 Value in Specific Cell Line, U-87MG.
For data set [7], the system named is A549 cells. The following applies: human.
Experimental: as §1, §2, §3
In data set [8] the test system is HepG2 cells. Conditions: human.
Experimental: as §1, §2, §3
Data set [9] deals with A549 cells. The data set can be described thus: MTT cytotoxicity / synergy assay, 72 h, A549. The following applies: Homo sapiens, A549, 72 h, read-out: IC50 Value in Specific Cell Line, A549.
Experimental: as §1, §2, §3
For another data set, the system named is HuH7 cells. Put plainly: MTT cytotoxicity / synergy assay, 72 h, HuH7. The following applies: Homo sapiens; for IC50: Huh-7, 72 h, read-out: IC50 Value in Specific Cell Line, HuH7.
A further data set concerns the target BSA. Further details: method as in PMID 29772022. The following applies: read-out: Kd (binding to BSA); cited from earlier work.
Data set [10] deals with MCF-7 cells. Conditions: read-out: IC50 value, MCF-7; cited from earlier work.
For data set [11], the system named is mammary tumors. Conditions: 20 days; GLIB 0.06 mg/kg/day orally, tamoxifen 1 mg/kg/day s.c.; cited from earlier work.
For data set [12], the system named is mammary tumors. Conditions: 20 days; GLIB 0.06 mg/kg/day orally, tamoxifen 1 mg/kg/day s.c.; cited from earlier work. This is another data set of the same source.
The subject of a further data set is MRP1. The following applies: cited from earlier work.
The nature of data set [13]: Analysis of drug stability in PBS. It counts as physicochemical. The following applies: equimolar mixtures with DOXO, PBS (pH 7.4), 37 °C, 7 to 14 days. As for the experimental part:
The samples were prepared in PBS (pH 7.4) containing 0.05% (v/v) Tween-80 and 0.5% (v/v) DMSO. […] The samples were placed into 2 mL HPLC vials, sealed, and incubated at 37 °C for 7 to 14 days. Every 24 h, 20 µL aliquots were taken for HPLC analysis.

Data set [14] relates to 4T1 breast cancer and B16F10 melanoma xenografts. Conditions: 4T1, B16F10 xenografts, MMTV-PyMT; cited from earlier work.
The mark [15] stands for this setting: Homo sapiens, HepG2, 72 h, read-out: IC50 Value in Specific Cell Line, HepG2.

Experimental for HMEC-1 cells: as §1, §2, §3
Experimental for HuH7 cells: as §1, §2, §3
Experimental for U-87MG cells: as §1, §2, §3

For the molecule `CCCCNC(=O)NS(=O)(=O)c1ccc(N)cc1` [CARB, Carbutamide], the IC50 (commonly the midpoint of a concentration-inhibition curve) in the data set on HepG2 cells [1] (setting [15]) was found to be 70.7 ± 1.4 µM.
Regarding `CCCNC(=O)NS(=O)(=O)c1ccc(Cl)cc1` [CHLO, Chlorpropamide], the “decrease in cell viability caused by 0.05% Tween-80” value in the data set on MCF-7 cells [2] amounted to 3.2%. Also, the IC50 in the data set with MCF-7 cells [2] (Homo sapiens, MCF7, 72 h) is > 500 µM; in the data set with HepG2 cells [1] (Homo sapiens, HepG2, 72 h, read-out: IC50 Value in Specific Cell Line, HepG2, MTT, 72 h, n.d. = IC50 not achieved within concentrations tested), 480 ± 54.1 µM. In data set [3], the “increase of DOXO levels” value is “up to 2.3 times”. For the same molecule, the hemolysis at 4 h in [4] lay within 11.2 to 11.9%. Moreover, in data set [5], the aggregate formation entry was “do not form aggregates”. Further, the “nKa (global affinity constant, HSA)” value in the data set with HSA was 62000 M⁻¹. Besides, the solubility – broadly, the dissolved amount per volume that the medium holds – in data set [6] is 1000 µM (≈ 277 µg/mL). Further, in the data set with HMEC-1 cells, the CC50 amounted to 218.2 ± 1.6 µM.
`COc1cccc2c1C(=O)c1c(O)c3c(c(O)c1C2=O)C[C@@](O)(C(=O)CO)C[C@@H]3O[C@H]1C[C@H](N)[C@H](O)[C@H](C)O1` [DOXO, Doxorubicin]: in the data set on MCF-7 cells [2], the “decrease in cell viability caused by 0.05% Tween-80” value is recorded as 12.6%. The IC50 was determined as 0.46 ± 0.06 µM with MCF-7 cells [2] (Homo sapiens, MCF7); 0.57 ± 0.11 µM in the data set with U-87MG cells; 0.27 ± 0.02 µM with A549 cells [9]; 0.28 ± 0.02 µM in the data set with HuH7 cells; 0.3 ± 0.01 µM in the data set with HepG2 cells [1] (setting [15]). The same molecule gave a hemolysis at 4 h in data set [4] of 32.3%. Further, the A549 cell viability in the data set with A549 cells [7] is on record as 0.643 ± 0.002. The molecule further gave a HepG2 cell viability with HepG2 cells [8] of 0.695 ± 0.003. Further, the viability (commonly a read-out of living cells in per cent, often relative to untreated cells) at 0.65 µM in the data set on HuH7 cells (Huh-7, read-out: HuH7 cell viability) was 53.5 ± 0.4%. The CC50 with HMEC-1 cells is 0.08 ± 0.01 µM.
With `COc1ccc(Cl)cc1C(=O)NCCc1ccc(S(=O)(=O)NC(=O)NC2CCCCC2)cc1` [GLIB, Glibenclamide], the Kd (usually the free concentration of one partner at which half of the binding sites on the other are occupied at equilibrium, for simple one-to-one binding) at BSA is 0.67 µM. Besides, the concentration for half-maximal inhibition (IC50) with MCF-7 cells [10] was 325 µM; in the data set with HuH7 cells, 493.2 ± 1.3 µM. Besides, the “tumors responded (regressed or remained stable)” value in the data set on mammary tumors [11] is given as 64%. The tumors responded result in the data set with mammary tumors [12] is “no response”. In addition, the “concentration increasing intracellular accumulation of calcein” value with MRP1 was ≥ 3.12 µM. Further, the CC50 in the data set with HMEC-1 cells is 248 ± 3.6 µM.
As for `Cc1ccc(S(=O)(=O)NC(=O)NN2CC3CCCC3C2)cc1` (stereo not shown) [GLIC, Gliclazide], the IC50 with MCF-7 cells [2] (Homo sapiens, MCF7, 72 h) is 87.9 µM; with MCF-7 cells [10], 216 µM. In addition, the stability result in data set [13] was “slow but noticeable degradation”. The Kd on BSA was 155 µM. Moreover, the CC50 with HMEC-1 cells worked out at 447.7 ± 2.3 µM.
`Cc1cnc(C(=O)NCCc2ccc(S(=O)(=O)NC(=O)NC3CCCCC3)cc2)cn1` [GLIP, Glipizide]: the IC50 was determined as 339 ± 18.8 µM in the data set with MCF-7 cells [2] (Homo sapiens, MCF7); 421.9 ± 0.5 µM in the data set with HuH7 cells; 229 ± 10.9 µM in the data set with HepG2 cells [1] (setting [15]). Moreover, in data set [14], the “effect on tumor growth and metastasis” value was “inhibited tumor growth and metastasis”. In addition, in the data set on HMEC-1 cells, the CC50 came out at 454.1 ± 1.8 µM.
For `COc1ccc2c(c1)C(=O)N(CCc1ccc(S(=O)(=O)NC(=O)NC3CCCCC3)cc1)C(=O)C2(C)C` [GLIQ, Gliquidone], the IC50 was determined as 68.8 ± 2.5 µM with MCF-7 cells [2] (Homo sapiens, MCF7); 57.1 ± 1.8 µM in the data set on U-87MG cells; 259 ± 16.3 µM with A549 cells [9]; 400.7 ± 2.2 µM with HuH7 cells; 39.6 ± 2.6 µM with HepG2 cells [1] (setting [15]). The “increase of DOXO levels” value in data set [3] is reported as “up to 2.3 times”. In addition, in [4], the hemolysis at 4 h was 11.2 to 11.9%. The CC50 with HMEC-1 cells is 157 ± 2.2 µM.
Turning to `COCCCNC(=O)NS(=O)(=O)c1ccc(C)cc1` [MESU, N-(3-methoxy-propyl)-N’-(toluene-4-sulfoyl)-urea], the IC50 is 495.9 ± 0.8 µM with MCF-7 cells [2]; 63.1 ± 0.3 µM in the data set on HepG2 cells [1] (read-out: IC50 Value in Specific Cell Line, HepG2, MTT, 72 h, n.d. = IC50 not achieved within concentrations tested); 78.3 ± 2.4 µM in the data set on HMEC-1 cells (MTT, 72 h, n.d. = IC50 not achieved within concentrations tested).
`Cc1ccc(S(=O)(=O)NC(=O)NN2CCCCCC2)cc1` [TOLA, Tolazamide]: the stability result in data set [13] was “slow but noticeable degradation”. In addition, the half-inhibitory concentration (IC50) in the data set with HepG2 cells [1] (setting [15]) came out at 470 ± 12.4 µM. For the same molecule, in the data set on HMEC-1 cells, the CC50 is 468.6 ± 0.5 µM.
For the molecule `CCCCNC(=O)NS(=O)(=O)c1ccc(C)cc1` [TOLB, Tolbutamide], the IC50 was found to be 461 ± 53.9 µM in the data set with MCF-7 cells [2] (Homo sapiens, MCF7) and 232 ± 21.6 µM with HepG2 cells [1] (setting [15]). The CC50 in the data set on HMEC-1 cells is 88.2 ± 4.1 µM.
For `CC/C(=C(\c1ccccc1)c1ccc(OCCN(C)C)cc1)c1ccccc1` [tamoxifen], in the data set on mammary tumors [11], the “tumors responded (regressed or remained stable)” value is 57%. Moreover, the tumors responded in the data set with mammary tumors [12] is given as 75%.
Tween-80: the “concentration above which survival of MCF-7 cells is significantly reduced” value in the data set with MCF-7 cells [2] was “above 0.05 % (v/v)”.
